Entries after “also recorded” stand apart in the source; their conditions may differ. No end group written: not given here.
Tested on: rabbit aorta muscle strips
Assay: Bioactivity test: relaxation of norepinephrine-precontracted rabbit aorta muscle strips in organ bath
Type: cell-based, New Zealand rabbits
Conditions: for relaxation activity: Example 6, tested as in Example 5, corresponding concentrations
Experimental: Muscle strips of rabbit aorta were first contracted by the action of a solution of norepinephrine (10^-7 M). After constant conditions had been adjusted, the peptides were added (position of the arrow).
The muscle relaxation continues only after a further addition of unphosphorylated alpha-nANaP.
Aortae of New Zealand rabbits were prepared. The muscular tension was measured with a muscle strip in an organ bath containing physiological saline. The strips were pre-contracted with a solution of 10^-6 M of norepinephrin, then at fill relaxation. For the assay, a further contraction was induced with 10^-7 M of norepinephrin. After constant contraction conditions had been reached, the peptides were applied.
Alpha-hANaP was phosphorylated according to EXAMPLE 1 in the presence of ATP and the catalytic subunit according to EXAMPLE 1. For control, unphosphorylated alpha-hANaP was incubated under the same conditions, however in the absence of ATP. […] Stepwise addition of unphosphorylated, phosphorylated and in turn unphosphorylated alpha-hANaP allows clearly to recognize that only unphosphorylated alpha-hANaP exerts a significant relaxing effect in comparison to phosphorylated peptide. If the addition is reversed, first phosphorylated, then unphosphorylated and again phosphorylated alpha-hANaP, the corresponding reversed relaxation effect is found.
CDD-32 (Urodilatin) is phosphorylated according to Example 1 and investigated for its biological activity in the same manner as in Example 5.

| Substance | relaxation activity | relative relaxation capability (FIG. 8, phosphorylated versus unphosphorylated form at corresponding concentration) | effect onto the smooth vascular musculature (relaxation) (FIG. 5, strips contracted with norepinephrine 10^-7 M, peptide final concentration 0.3 to 0.6×10^-9 M) | muscle relaxation of precontracted rabbit aorta strips (FIG. 7 / Example 5, final concentration 0.3×10^-9 M, stepwise addition, listed as phosphorylated alpha-hANaP) |
| --- | --- | --- | --- | --- |
| phosphorylated CDD-32: CDD-32 (urodilatin, amino acids 95-126 of gamma-hANaP) phosphorylated according to Example 1 (TAPRSLRRSSCFGGRMDRIGAQSGLGCNSFRY; ends and bridges not checked; also: phosphorylated (phosphate), site not given here; UniProt P01160 120-151, looked up) | distinctly reduced relaxation | significantly lower relaxation capability than that of the unphosphorylated form | – | – |
| Urodilatin [reference compound] | dose-dependant relaxation activity | – | – | – |
| phosphorylated CDD-28: alpha-hANaP (positions 99-126 of gamma-hANaP) phosphorylated with c-AMP-dependent proteinkinase; formula I with R = H, X = phosphate (SLRRSSCFGGRMDRIGAQSGLGCNSFRY; ends and bridges not checked; also: phosphorylated (phosphate), site not given here; UniProt P01160 124-151, looked up) | – | – | only a slight relaxation | an effect next to nothing; also recorded: negligible effect |
